What was measured:
[1] = biological target: Replicase polyprotein 1a (Severe acute respiratory syndrome-related coronavirus, UniProt P0C6U8); assay: Inhibition of SARS coronavirus 3CLpro
[2] = Inhibition of SARS coronavirus PLpro; design: species or system Severe acute respiratory syndrome-related coronavirus
[3] = biological target: Cytochrome P450 2D6 (Homo sapiens, UniProt P10635); assay: Inhibition of CYP2D6 (unknown origin); assay type: ADME
[4] = biological target: Cytochrome P450 2C9 (Homo sapiens, UniProt P11712); assay: Inhibition of CYP2C9 (unknown origin); assay type: ADME
Cytochrome P450 2C9, sequence (P11712 whole entry): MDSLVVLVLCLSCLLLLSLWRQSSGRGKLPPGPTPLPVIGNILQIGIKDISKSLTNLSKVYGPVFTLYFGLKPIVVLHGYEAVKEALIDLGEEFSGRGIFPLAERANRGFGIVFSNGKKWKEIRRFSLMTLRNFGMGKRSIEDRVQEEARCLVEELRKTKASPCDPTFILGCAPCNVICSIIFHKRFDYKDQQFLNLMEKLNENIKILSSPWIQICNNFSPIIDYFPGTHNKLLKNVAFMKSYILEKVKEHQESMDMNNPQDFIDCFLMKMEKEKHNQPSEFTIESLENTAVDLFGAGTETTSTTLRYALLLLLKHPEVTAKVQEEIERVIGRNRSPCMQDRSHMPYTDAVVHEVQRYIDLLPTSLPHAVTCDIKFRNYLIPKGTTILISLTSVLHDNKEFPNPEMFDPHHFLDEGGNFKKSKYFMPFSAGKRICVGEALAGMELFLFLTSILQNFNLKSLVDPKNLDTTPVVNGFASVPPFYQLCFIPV

[5] = biological target: T1, Cytochrome P450 1A2 (Homo sapiens, UniProt P05177); assay: Inhibition of CYP1A2 (unknown origin); assay type: ADME
T1 sequence (P05177 whole entry): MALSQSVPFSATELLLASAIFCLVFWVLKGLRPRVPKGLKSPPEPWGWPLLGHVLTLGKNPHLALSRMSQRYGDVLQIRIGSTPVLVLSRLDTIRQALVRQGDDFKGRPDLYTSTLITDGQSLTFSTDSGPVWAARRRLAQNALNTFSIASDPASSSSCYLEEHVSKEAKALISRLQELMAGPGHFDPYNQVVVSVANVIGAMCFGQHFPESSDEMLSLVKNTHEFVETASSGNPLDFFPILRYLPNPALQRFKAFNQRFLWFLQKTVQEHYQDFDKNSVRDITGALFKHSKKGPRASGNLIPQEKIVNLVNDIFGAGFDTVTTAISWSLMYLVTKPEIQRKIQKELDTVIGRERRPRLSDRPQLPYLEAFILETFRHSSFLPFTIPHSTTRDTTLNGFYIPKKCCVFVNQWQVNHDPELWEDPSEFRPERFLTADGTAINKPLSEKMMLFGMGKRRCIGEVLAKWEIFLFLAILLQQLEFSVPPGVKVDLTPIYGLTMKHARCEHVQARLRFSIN

[6] = biological target: Replicase polyprotein 1a (Severe acute respiratory syndrome-related coronavirus) (UniProt P0C6U8); assay: Inhibition of SARS coronavirus 3CLpro at 100 uM

Cytochrome P450 2D6, sequence (P10635 whole entry): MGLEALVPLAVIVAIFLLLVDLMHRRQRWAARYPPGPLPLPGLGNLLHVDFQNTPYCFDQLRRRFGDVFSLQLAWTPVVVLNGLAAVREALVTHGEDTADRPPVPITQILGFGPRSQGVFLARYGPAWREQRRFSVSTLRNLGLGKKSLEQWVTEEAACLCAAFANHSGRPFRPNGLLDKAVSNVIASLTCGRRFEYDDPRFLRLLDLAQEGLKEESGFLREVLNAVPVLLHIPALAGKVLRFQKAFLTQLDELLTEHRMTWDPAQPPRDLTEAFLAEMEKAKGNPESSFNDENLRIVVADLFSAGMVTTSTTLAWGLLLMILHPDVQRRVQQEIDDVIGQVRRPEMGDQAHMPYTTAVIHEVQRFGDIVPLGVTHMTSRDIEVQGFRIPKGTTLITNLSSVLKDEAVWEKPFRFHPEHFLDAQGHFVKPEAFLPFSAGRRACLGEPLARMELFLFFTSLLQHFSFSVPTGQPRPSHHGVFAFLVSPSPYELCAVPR

CCC(C)(C)NC(=O)[C@@H](c1ccn(C)c1)N(C(=O)Cn1nnc2ccccc21)c1ccc(NC(C)=O)cc1
IC50 ([1]; read-out: IC50): 6200 nM
IC50 [2]: > 60000 nM

O=C(Cn1nnc2ccccc21)N(Cc1ccsc1)c1ccc(-c2ccncc2)cc1
IC50 ([1]; read-out: IC50): 2000 nM

O=C(Nc1ccc(N(Cc2ccsc2)C(=O)Cn2nnc3ccccc32)cc1)C1CC1
INH [3]: 8.4 µM
INH [4]: 7.2 µM
INH [5]: 7.7 µM

O=C(Nc1ccc(N(Cc2ccsc2)C(=O)Cn2nnc3ccccc32)cc1)c1ccccc1
inhibition [6]: 18%

CC(C)COC(=O)Nc1ccc(N(C(=O)Cn2nnc3ccccc32)C(C(=O)NC(C)(C)C)c2ccsc2)cc1 (configuration not stated)
IC50 [1]: Not Active

CC(C)(C)NC(=O)[C@@H](c1cccnc1)N(C(=O)c1ccco1)c1ccc(C(C)(C)C)cc1
INH [3]: > 30 µM
INH [4]: 9.1 µM
INH [5]: > 30 µM

COc1ncccc1-c1ccc(N(Cc2ccsc2)C(=O)Cn2nnc3ccccc32)cc1
IC50 ([1]; read-out: IC50): 700 nM
